Assays:
[1] = Evaluation of photopolymerization reactivity (Photo-DSC); assay type: physicochemical; settings: ink: 950 mg monomer compound + 50 mg IRGACURE 907; 365 nm, 200 mW/cm^2
Protocol: Inks for evaluation were each prepared by mixing 950 mg of the monomer compound presented in a respective column of each Example or Comparative Example in Table 1 with 50 mg of 2-methyl-1-[4-(methylthio)phenyl]-2-morpholinopropan-1-one (IRGACURE 907, manufactured by BASF Japan Ltd.) serving as a polymerization initiator, by means of a magnetic stirrer.
An evaluation test for photopolymerization reactivity was performed on each ink using a measuring device combining DSC-7020 manufactured by Seiko Instruments Inc. with a spot light source (LA-410UV) manufactured by HAYASHI WATCH-WORKS CO., LTD. (referred to as Photo-DSC hereinafter). As for the light for radiation, light having wavelength of 365 nm was used, and the light quantity was set to 200 mW/cm^2.
The calorific value of the polymerization reaction carried out after radiation of light was measured by Photo-DSC. A measurement of the calorific value, which was obtained when light was applied for sufficient time to complete a polymerization reaction of the monomer compound, was performed twice on one sample. The calorific value obtained with the first measurement contains the calorific value from radiation of light as well as the calorific value from the polymerization reaction of the monomer compound. Therefore, the sample which completed the polymerization reaction by the first measurement was subjected to radiation of light under the same condition, and the calorific value of the heat other than the heat generated from the polymerization reaction of the monomer compound was measured. The calorific value of the polymerization reaction of the monomer compound was determined with a difference between the calorific value obtained in the first measurement and the calorific value obtained in the second measurement.
As for the exothermic characteristic thereof, the time required to achieve the maximum calorific value from the time for starting radiation of light was determined as T1 (sec.), which was used as an index for comparing the speed of the photopolymerization reaction.

[2] = Evaluation of photocuring ability (photorheometer); assay type: physicochemical; settings: 365 nm; for Photocuring (photorheometer) Elastic modulus: ink: 950 mg monomer + 50 mg IRGACURE 907, 50 mW/cm^2, 10 μm gap, saturated elastic modulus; for Photocuring (photorheometer) Curing energy: light energy applied until elastic modulus saturated; for Photocuring (photorheometer) Curing energy / Photocuring result in words (curing state, elastic modulus): 50 mW/cm^2
Protocol: An evaluation for curing ability from photopolymerization was performed on each ink using a measuring device combining a rheometer VAR200AD, manufactured by REOLOGICA Instruments AB, with an LED light source (LIGHTNINGCURE LC-L1) manufactured by Hamamatsu Photonics K.K. (referred to as Photorheometer, hereinafter).
A measurement was performed in the following manner. A sample was placed in a gap of 10 μm between a pair of corm plates each having a diameter of 20 mm, and light (365 nm, 50 mW/cm^2) emitted from the LED light source was applied to the sample. A change in viscoelsticity caused by curing was measured, and the time when the elastic modulus (Pa) was saturated was determined as completion of curing. Based on the measurement result, the terminal point of the elastic modulus was determined, which was determined as an index of a curing level. Typically, the level of 1×10^4 (Pa) is a level where the sample is completely cured. Moreover, light energy (curing energy) applied until the elastic modulus was saturated was calculated by the product of light radiation intensity (here, which was 50 mW/cm^2) and a period (sec.) for light radiation.

| Structure (SMILES) | Photopolymerization reactivity (Photo DSC) T1, time required to achieve the maximum calorific value from start of light radiation [1] [s] | Photocuring (photorheometer) Elastic modulus [2] | Photocuring (photorheometer) Curing energy [2] | Photocuring result in words (curing state, elastic modulus) [2] | Photocuring result in words (curing state, elastic modulus) ([2]; listed as Comparative Example 4) | Photocuring result in words (curing state, elastic modulus) ([2]; listed as Comparative Example 7) |
| --- | --- | --- | --- | --- | --- | --- |
| C=CC(=O)OCCOC(=O)N(CC)CC [B-1] | 3.2 | 9.4*10^3 Pa | 520 mJ/cm^2 | – | – | – |
| C=C(C)C(=O)OCCOC(=O)N(CC)CC [B-2] | 10.9 | 8.0*10^4 Pa | 1,950 mJ/cm^2 | – | – | – |
| C=CC(=O)OCCOc1ccccc1 [Commercial product (a), reference compound] | 2.5 | 4.8*10^4 Pa | 200 mJ/cm^2 | – | – | – |
| C=C(C)C(=O)OCCOc1ccccc1 [Commercial product (b), reference compound] | 19.3 | 8.0*10^4 Pa | 2,020 mJ/cm^2 | – | – | – |
| C=CC(=O)OCCOC(=O)NCCCC [Commercial product (c), reference compound] | 2.5 | 3.2*10^4 Pa | 210 mJ/cm^2 | – | – | – |
| C=CC(=O)OCCN1CCOCC1 [Commercial product (d), reference compound] | 4.5 | 1.3*10^4 Pa | 365 mJ/cm^2 | – | – | – |
| C=C(C)C(=O)OCCN1CCOCC1 [Commercial product (e), reference compound] | 30.3 | 8.6*10^4 Pa | 2,050 mJ/cm^2 | – | – | – |
| C=CC(=O)OCCOC(=O)N1CCOCC1 [D-1] | 3.2 | 7.9*10^4 Pa | 175 mJ/cm^2 | – | – | – |
| C=C(C)C(=O)OCCOC(=O)N1CCOCC1 [D-2] | 7.0 | 7.6*10^4 Pa | 380 mJ/cm^2 | – | – | – |
| C=CC(=O)OCCOC(=O)N1CCCCC1 [E-1] | 4.5 | 5.0*10^4 Pa | 380 mJ/cm^2 | – | – | – |
| C=C(C)C(=O)OCCOC(=O)N1CCCCC1 [E-2] | 12.0 | 9.0*10^4 Pa | 840 mJ/cm^2 | – | – | – |
| C=CC(=O)OC1CCN(C(=O)OCC)CC1 [F-1] | 3.2 | 8.4*10^4 Pa | 150 mJ/cm^2 | – | – | – |
| C=C(C)C(=O)OC1CCN(C(=O)OCC)CC1 [F-2] | 7.0 | 9.4*10^4 Pa | 430 mJ/cm^2 | – | – | – |
| C=CC(=O)OCC(COC(=O)N(CC)CC)OC(=O)C=C (centres unmarked) [G-3] | 2.4 | 1.0*10^5 Pa | 140 mJ/cm^2 | – | – | – |
| C=C(C)C(=O)OCC(COC(=O)N(CC)CC)OC(=O)C(=C)C (centres unmarked) [G-4] | 4.8 | 1.0*10^5 Pa | 210 mJ/cm^2 | – | – | – |
| C=CC(=O)OCC(CC)(COC(=O)C=C)COC(=O)N(CC)CC [J-3] | 2.4 | 1.0*10^5 Pa | 100 mJ/cm^2 | – | – | – |
| C=C(C)C(=O)OCC(CC)(COC(=O)C(=C)C)COC(=O)N(CC)CC [J-4] | 3.0 | 1.0*10^5 Pa | 110 mJ/cm^2 | – | – | – |
| C=CC(=O)OCCSCC [Ref. Syn. Ex. 1, 2-acryloxy ethylethyl sulfide, reference compound] | 2.5 | 1.1*10^3 Pa | – | (not cured) | extremely low elastic modulus | – |
| C=C(C)C(=O)OCCSCC [Ref. Syn. Ex. 2, 2-methacryloxyethylethyl sulfide, reference compound] | 10.3 | <1.0 Pa | – | (not cured) | – | extremely low elastic modulus |

From patent publication US9212132B2, “(Meth)acrylic acid ester, activation energy ray curing composition, and inkjet recording ink” (Ricoh Company Ltd., priority 2011, dated 2015)
